Source: PubChem BioAssay (NCI)
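Exposure lasted 48 hours, with cells grown in 96-well plates and compounds tested at five concentrations. GI50: concentration for 50% inhibition of growth. The concentration for full growth arrest is given as TGI.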

Tests used:
Experiment in all cases: DTP human tumour cell line panel, 48 h
MDA-MB-435 = tested on: MDA-MB-435
RXF 393 renal = tested on: RXF 393 renal
RPMI-8226 leukemia = tested on: RPMI-8226 leukemia
OVCAR-3 ovarian = tested on: OVCAR-3 ovarian
MALME-3M melanoma = tested on: MALME-3M melanoma
SF-268 CNS = tested on: SF-268 CNS
HOP-92 NSCLC = tested on: HOP-92 NSCLC
TK-10 renal = tested on: TK-10 renal
A549 NSCLC = tested on: A549 NSCLC
ACHN renal = tested on: ACHN renal
NCI-H460 lung = tested on: NCI-H460 lung
CAKI-1 renal = tested on: CAKI-1 renal
SW-620 colon = tested on: SW-620 colon
NCI-H23 lung = tested on: NCI-H23 lung
NCI-H226 lung = tested on: NCI-H226 lung
LOX IMVI melanoma = tested on: LOX IMVI melanoma
T-47D breast = tested on: T-47D breast
UACC-62 melanoma = tested on: UACC-62 melanoma
A498 renal = tested on: A498 renal
MCF7 breast = tested on: MCF7 breast
UACC-257 melanoma = tested on: UACC-257 melanoma
SF-295 CNS = tested on: SF-295 CNS
PC-3 prostate = tested on: PC-3 prostate
OVCAR-5 ovarian = tested on: OVCAR-5 ovarian
M14 melanoma = tested on: M14 melanoma
DU-145 prostate = tested on: DU-145 prostate
EKVX NSCLC = tested on: EKVX NSCLC
HS 578T breast = tested on: HS 578T breast
786-0 renal = tested on: 786-0 renal
SNB-75 CNS = tested on: SNB-75 CNS
KM12 colon = tested on: KM12 colon
SK-OV-3 ovarian = tested on: SK-OV-3 ovarian
MOLT-4 leukemia = tested on: MOLT-4 leukemia
SN12C renal = tested on: SN12C renal
HT29 colon = tested on: HT29 colon
SK-MEL-28 melanoma = tested on: SK-MEL-28 melanoma
UO-31 renal = tested on: UO-31 renal
SK-MEL-5 melanoma = tested on: SK-MEL-5 melanoma
HCT-116 colon = tested on: HCT-116 colon
SF-539 CNS = tested on: SF-539 CNS
U251 CNS = tested on: U251 CNS
IGROV1 ovarian = tested on: IGROV1 ovarian
SK-MEL-2 melanoma = tested on: SK-MEL-2 melanoma
HOP-62 NSCLC = tested on: HOP-62 NSCLC
OVCAR-4 ovarian = tested on: OVCAR-4 ovarian
CCRF-CEM leukemia = tested on: CCRF-CEM leukemia
SNB-19 CNS = tested on: SNB-19 CNS
K-562 leukemia = tested on: K-562 leukemia
NCI-H522 lung = tested on: NCI-H522 lung
OVCAR-8 ovarian = tested on: OVCAR-8 ovarian
HCC-2998 colon = tested on: HCC-2998 colon
BT-549 breast = tested on: BT-549 breast
HCT-15 colon = tested on: HCT-15 colon
MDA-MB-231 breast = tested on: MDA-MB-231 breast
COLO 205 colon = tested on: COLO 205 colon

CC1SC(c2ccc(Cl)c(Cl)c2)N(NC(=O)C(O)c2ccccc2)C1=O (stereo not given)
GI50 (MDA-MB-435): 41.8 µM | TGI (MDA-MB-435): > 100 µM | GI50 (RXF 393 renal): 30.3 µM | TGI (RXF 393 renal): 83.2 µM | GI50 (RPMI-8226 leukemia): 25 µM | TGI (RPMI-8226 leukemia): 66 µM | GI50 (OVCAR-3 ovarian): 25.9 µM | TGI (OVCAR-3 ovarian): 77.6 µM | GI50 (MALME-3M melanoma): 46.2 µM | TGI (MALME-3M melanoma): > 100 µM | GI50 (SF-268 CNS): 55.7 µM | TGI (SF-268 CNS): > 100 µM | GI50 (HOP-92 NSCLC): 40.8 µM | TGI (HOP-92 NSCLC): > 100 µM | GI50 (TK-10 renal): 41.3 µM | TGI (TK-10 renal): > 100 µM | GI50 (A549 NSCLC): 29.6 µM | TGI (A549 NSCLC): 85.4 µM | GI50 (ACHN renal): 33.3 µM | TGI (ACHN renal): > 100 µM | GI50 (NCI-H460 lung): 33.5 µM | TGI (NCI-H460 lung): > 100 µM | GI50 (CAKI-1 renal): 30.7 µM | TGI (CAKI-1 renal): > 100 µM | GI50 (SW-620 colon): 77.2 µM | TGI (SW-620 colon): > 100 µM | GI50 (NCI-H23 lung): 33.3 µM | TGI (NCI-H23 lung): > 100 µM | GI50 (NCI-H226 lung): 33.6 µM | TGI (NCI-H226 lung): > 100 µM | GI50 (LOX IMVI melanoma): 55.2 µM | TGI (LOX IMVI melanoma): > 100 µM | GI50 (T-47D breast): 67.5 µM | TGI (T-47D breast): > 100 µM | GI50 (UACC-62 melanoma): 25.2 µM | TGI (UACC-62 melanoma): 86.1 µM | GI50 (A498 renal): 77.1 µM | TGI (A498 renal): > 100 µM | GI50 (MCF7 breast): 47.1 µM | TGI (MCF7 breast): > 100 µM | GI50 (UACC-257 melanoma): 35.1 µM | TGI (UACC-257 melanoma): > 100 µM | GI50 (SF-295 CNS): 24.5 µM | TGI (SF-295 CNS): 67.5 µM | GI50 (PC-3 prostate): 35 µM | TGI (PC-3 prostate): > 100 µM | GI50 (OVCAR-5 ovarian): 70.1 µM | TGI (OVCAR-5 ovarian): > 100 µM | GI50 (M14 melanoma): 42.5 µM | TGI (M14 melanoma): > 100 µM | GI50 (DU-145 prostate): 59.2 µM | TGI (DU-145 prostate): > 100 µM | GI50 (EKVX NSCLC): 43.7 µM | TGI (EKVX NSCLC): > 100 µM | GI50 (HS 578T breast): 51.1 µM | TGI (HS 578T breast): > 100 µM | GI50 (786-0 renal): 79.6 µM | TGI (786-0 renal): > 100 µM | GI50 (SNB-75 CNS): 24.8 µM | TGI (SNB-75 CNS): 90.1 µM | GI50 (KM12 colon): 42.6 µM | TGI (KM12 colon): > 100 µM | GI50 (SK-OV-3 ovarian): > 100 µM | TGI (SK-OV-3 ovarian): > 100 µM | GI50 (MOLT-4 leukemia): 26.6 µM | TGI (MOLT-4 leukemia): 82.2 µM | GI50 (SN12C renal): 44.1 µM | TGI (SN12C renal): > 100 µM | GI50 (HT29 colon): 32.3 µM | TGI (HT29 colon): > 100 µM | GI50 (SK-MEL-28 melanoma): 38.5 µM | TGI (SK-MEL-28 melanoma): > 100 µM | GI50 (UO-31 renal): 36.6 µM | TGI (UO-31 renal): > 100 µM | GI50 (SK-MEL-5 melanoma): 38.1 µM | TGI (SK-MEL-5 melanoma): > 100 µM | GI50 (HCT-116 colon): 43.2 µM | TGI (HCT-116 colon): > 100 µM | GI50 (SF-539 CNS): 72.6 µM | TGI (SF-539 CNS): > 100 µM | GI50 (U251 CNS): 41 µM | TGI (U251 CNS): > 100 µM | GI50 (IGROV1 ovarian): 28.5 µM | TGI (IGROV1 ovarian): 74.6 µM | GI50 (SK-MEL-2 melanoma): 45.4 µM | TGI (SK-MEL-2 melanoma): > 100 µM | GI50 (HOP-62 NSCLC): 85.1 µM | TGI (HOP-62 NSCLC): > 100 µM | GI50 (OVCAR-4 ovarian): 32.6 µM | TGI (OVCAR-4 ovarian): 91.2 µM | GI50 (CCRF-CEM leukemia): 55.1 µM | TGI (CCRF-CEM leukemia): > 100 µM | GI50 (SNB-19 CNS): 93.2 µM | TGI (SNB-19 CNS): > 100 µM | GI50 (K-562 leukemia): 57.1 µM | TGI (K-562 leukemia): > 100 µM | GI50 (NCI-H522 lung): 28.4 µM | TGI (NCI-H522 lung): 98.5 µM | GI50 (OVCAR-8 ovarian): 34.1 µM | TGI (OVCAR-8 ovarian): > 100 µM | GI50 (HCC-2998 colon): 36.9 µM | TGI (HCC-2998 colon): > 100 µM | GI50 (BT-549 breast): 45 µM | TGI (BT-549 breast): > 100 µM | GI50 (HCT-15 colon): 45.5 µM | TGI (HCT-15 colon): > 100 µM | GI50 (MDA-MB-231 breast): 31.3 µM | TGI (MDA-MB-231 breast): > 100 µM | GI50 (COLO 205 colon): 44.7 µM | TGI (COLO 205 colon): > 100 µM
